The target of one assay is T1, hFAP (Homo sapiens, UniProt Q12884).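 Further: substrate fluorescence read at room temperature in darkness, IC50 obtained by one-site dose-response fitting of percent inhibition against log concentration.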
T1 sequence (Q12884 38-760): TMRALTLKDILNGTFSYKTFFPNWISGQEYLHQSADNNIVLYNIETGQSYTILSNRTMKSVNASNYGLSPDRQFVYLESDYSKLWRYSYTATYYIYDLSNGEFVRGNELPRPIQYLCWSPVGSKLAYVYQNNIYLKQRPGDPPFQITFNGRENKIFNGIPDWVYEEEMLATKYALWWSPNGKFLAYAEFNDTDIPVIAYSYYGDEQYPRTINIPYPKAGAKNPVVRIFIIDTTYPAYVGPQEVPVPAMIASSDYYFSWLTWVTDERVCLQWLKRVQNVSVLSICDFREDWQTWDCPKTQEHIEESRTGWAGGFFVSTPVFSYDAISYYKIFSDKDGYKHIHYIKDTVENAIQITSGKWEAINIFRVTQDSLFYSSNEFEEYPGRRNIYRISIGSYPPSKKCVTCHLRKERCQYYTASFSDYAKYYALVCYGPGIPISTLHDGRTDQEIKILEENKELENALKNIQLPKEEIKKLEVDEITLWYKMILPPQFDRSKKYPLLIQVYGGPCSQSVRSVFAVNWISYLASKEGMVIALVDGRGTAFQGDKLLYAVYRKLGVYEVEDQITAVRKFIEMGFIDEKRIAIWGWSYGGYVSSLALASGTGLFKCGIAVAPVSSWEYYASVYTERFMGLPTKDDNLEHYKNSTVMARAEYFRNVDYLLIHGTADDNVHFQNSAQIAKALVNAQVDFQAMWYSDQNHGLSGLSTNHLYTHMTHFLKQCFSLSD
As to the kind of experiment: biochemical.

Another assay has as its target T2, FAP Human Plasma (Homo sapiens, UniProt Q12884).
T2 construct: Plasma (anticoagulant K2EDTA) was used as the enzyme source; tissue AZ Biobank; host or cells: pooled human plasma (K2EDTA)
T2 sequence (Q12884 24-760 limits assumed): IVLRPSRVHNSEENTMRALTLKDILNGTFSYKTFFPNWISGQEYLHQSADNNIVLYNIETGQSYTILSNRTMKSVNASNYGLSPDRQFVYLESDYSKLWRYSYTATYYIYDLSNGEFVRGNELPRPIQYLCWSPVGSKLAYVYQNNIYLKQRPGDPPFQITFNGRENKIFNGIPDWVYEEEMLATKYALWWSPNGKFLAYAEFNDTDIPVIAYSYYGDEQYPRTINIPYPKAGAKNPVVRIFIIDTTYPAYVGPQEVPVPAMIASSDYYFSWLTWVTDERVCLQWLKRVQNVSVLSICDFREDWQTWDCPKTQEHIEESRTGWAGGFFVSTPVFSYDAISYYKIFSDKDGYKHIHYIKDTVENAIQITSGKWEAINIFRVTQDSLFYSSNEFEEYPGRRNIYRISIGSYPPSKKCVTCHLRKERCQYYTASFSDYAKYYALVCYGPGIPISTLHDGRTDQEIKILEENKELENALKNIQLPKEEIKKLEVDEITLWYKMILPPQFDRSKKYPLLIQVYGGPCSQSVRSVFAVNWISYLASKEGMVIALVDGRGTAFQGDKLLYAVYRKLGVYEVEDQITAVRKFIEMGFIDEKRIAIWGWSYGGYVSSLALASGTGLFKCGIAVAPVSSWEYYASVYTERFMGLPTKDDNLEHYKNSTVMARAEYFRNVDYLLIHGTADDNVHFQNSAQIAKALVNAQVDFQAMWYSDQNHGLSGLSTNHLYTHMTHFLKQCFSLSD
As to the kind of experiment: FAP plasma inhibition assay, human plasma. It counts as biochemical. Particulars: human plasma dilution 1:40, Ala-Pro-AMC 75 μM; n = 1. The method, then:
This assay was adapted from the method described in Example 89 for detection of FAP target engagement enzyme activity in plasma. Plasma (anticoagulant K2EDTA) was used as the enzyme source: Human plasma (Pooled from AZ Biobank) and Mouse plasma (AZ AST Biobank) and Cynomolgus plasma (BioIVT, #NHP00PLK2FNN, lot CYN222895). 384-Well black fluotrack PS plates (Greiner 781076) were used. 20 μL diluted plasma (Cynomolgus and Human plasma dilution 1:40, Mouse plasma dilution 1:67) in buffer (PBS, 0.1% BSA) was added to 0.6 μL compounds (in DMSO). Compounds were tested using 10 CR, 3 fold dilution series from 500 nM FAC. Two replicates for each assay point were run on the same plate. A fluorescence blank read was taken before substrate addition. Substrate, Ala-Pro-AMC (ARI-3144) stock solution (20 mM in DMSO) was diluted in buffer (PBS, 0.1% BSA) to 150 μM concentration and 20 μL added giving 75 μM FAC. Plates were incubated for 40 min at rt in the dark. The plates were read on a Beckman Paradigm® reader with excitation 360 nm and emission 465 nm. Data were analyzed in Excel (IDBS XLfit Add-In) using a one site dose response model (4-parameter logistic fit).

Here are results for nine compounds from patent publication US20260070899A1, “N-(2-(4-CYANOTHIAZOLIDIN-3-YL)-2-OXOETHYL)-QUINOLINE-4-CARBOXAMIDES” (AstraZeneca AB, priority 2022, published 2026).

The term IC50 denotes the concentration that gives 50% inhibition. Read a low IC50 as greater potency.

With `N#C[C@@H]1CSCN1C(=O)CNC(=O)c1ccnc2ccc(C3CCCCO3)cc12` (mixture of isomers) [Example 32, N-(2-((R)-4-Cyanothiazolidin-3-yl)-2-oxoethyl)-6-((RS)-tetrahydro-2H-pyran-2-yl)quinoline-4-carboxamide], the half-maximal inhibitory concentration (IC50) on hFAP was determined as 0.63 nM; at FAP Human Plasma it was 0.5 nM.

With `CO[C@H]1CC[C@H](c2ccc3nccc(C(=O)NCC(=O)N4CSC[C@H]4C#N)c3c2)CC1` (single isomer, unassigned) [Example 78, N-(2-((R)-4-Cyanothiazolidin-3-yl)-2-oxoethyl)-6-((1r,4R*)-4-methoxycyclohexyl)quinoline-4-carboxamide], the IC50 at FAP Human Plasma is 0.1 nM.

For `CC(C)(F)COc1ccc2nccc(C(=O)NCC(=O)N3CSC[C@H]3C#N)c2c1` [Example 3, (R)—N-(2-(4-Cyanothiazolidin-3-yl)-2-oxoethyl)-6-(2-fluoro-2-methylpropoxy)quinoline-4-carboxamide], at FAP Human Plasma, half-maximal inhibition (IC50) required 0.3 nM. Against the preceding compound, the IC50 is about 3-fold higher.

Take `N#C[C@@H]1CSCN1C(=O)CNC(=O)c1ccnc2ccc(C3(O)CCOCC3)cc12` [Example 15, (R)—N-(2-(4-Cyanothiazolidin-3-yl)-2-oxoethyl)-6-(4-hydroxy-tetrahydro-2H-pyran-4-yl)quinoline-4-carboxamide]: the IC50 is 0.45 nM against hFAP and 0.3 nM on FAP Human Plasma.

In the case of `CC(C)(O)c1ccc2nccc(C(=O)NCC(=O)N3CSC[C@H]3C#N)c2c1` [Example 16, (R)—N-(2-(4-Cyanothiazolidin-3-yl)-2-oxoethyl)-6-(2-hydroxypropan-2-yl)quinoline-4-carboxamide], the IC50 at hFAP came to 0.6 nM; at FAP Human Plasma, 0.9 nM.

In the case of `COC(C)(C)c1ccc2nccc(C(=O)NCC(=O)N3CSC[C@H]3C#N)c2c1` [Example 18, (R)—N-(2-(4-Cyanothiazolidin-3-yl)-2-oxoethyl)-6-(2-methoxypropan-2-yl)quinoline-4-carboxamide], the IC50 on hFAP was determined as 0.81 nM; on FAP Human Plasma, 1.5 nM.

`N#C[C@@H]1CSCN1C(=O)CNC(=O)c1ccnc2ccc(C3CCOCC3)cc12` [Example 20, (R)—N-(2-(4-Cyanothiazolidin-3-yl)-2-oxoethyl)-6-(tetrahydro-2H-pyran-4-yl)quinoline-4-carboxamide]: the results for the IC50 on hFAP and at FAP Human Plasma were 0.23 nM and 0.3 nM, respectively.

Turning to `CCOC1(c2ccc3nccc(C(=O)NCC(=O)N4CSC[C@H]4C#N)c3c2)CCOCC1` [Example 23, (R)—N-(2-(4-Cyanothiazolidin-3-yl)-2-oxoethyl)-6-(4-ethoxytetrahydro-2H-pyran-4-yl)quinoline-4-carboxamide], the IC50 against hFAP worked out at 0.71 nM; against FAP Human Plasma, 0.5 nM.

On to `N#C[C@@H]1CSCN1C(=O)CNC(=O)c1ccnc2ccc(C3(C#N)CC3)cc12` [Example 70, (R)-6-(1-Cyanocyclopropyl)-N-(2-(4-cyanothiazolidin-3-yl)-2-oxoethyl)quinoline-4-carboxamide], for which the IC50 was 0.43 nM at hFAP and 0.7 nM against FAP Human Plasma.
